Laboratory results published in the supplement of paper PMC10307832.

Experiments:
Assay in all cases: relative viability (nuclei count vs DMSO), 5 days (fraction); higher = more cells survive
[1] = test system: A-427
Outline: (§1)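 Lung cancer cell lines in 1536-well plates got either a single drug or a fixed anchor-drug dose together with five library-drug doses (not always all listed) in √10 steps, by pin tool, on the day after seeding. Nuclei were counted after 5 days, and relative viability is the treated-to-vehicle ratio of nuclei counts. Values are medians of duplicate plates.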

[2] = test system: COR-L 105
Outline: as §1

[3] = test system: EPLC-272H
Outline: as §1

[4] = test system: HOP-62
Outline: as §1

[5] = test system: LC-2-ad
Outline: as §1

[6] = test system: LCLC-97TM1
Outline: as §1

[7] = test system: LU99A
Outline: as §1

[8] = test system: LXF-289
Outline: as §1

[9] = test system: NCI-H1755
Outline: as §1

[10] = test system: NCI-H1792
Outline: as §1

[11] = test system: NCI-H1793
Outline: as §1

[12] = test system: NCI-H1915
Outline: as §1

[13] = test system: NCI-H1944
Outline: as §1

[14] = test system: NCI-H1975
Outline: as §1

[15] = test system: NCI-H2085
Outline: as §1

[16] = test system: NCI-H2170
Outline: as §1

[17] = test system: NCI-H358
Outline: as §1

[18] = test system: NCI-H460
Outline: as §1

[19] = test system: SK-LU-1
Outline: as §1

[20] = test system: SW 900
Outline: as §1

[21] = test system: UMC-11
Outline: as §1

[22] = test system: HCC-366
Outline: as §1

[23] = test system: HCC-78
Outline: as §1

SMILES: Oc1nc(-c2ccc(C(F)(F)F)cc2)nc2c1CSCC2 [XAV939] + CCNC(=O)c1noc(-c2cc(C(C)C)c(O)cc2O)c1-c1ccc(CN2CCOCC2)cc1 [Luminespib] (partner 0.01 µM)
- relative viability ([1]; first compound 0.08 µM): 1.15
- relative viability ([1]; first compound 0.253 µM): 0.978
- relative viability ([1]; first compound 0.8 µM): 0.753
- relative viability ([1]; first compound 2.53 µM): 0.782
- relative viability ([2]; first compound 0.08 µM): 0.964
- relative viability ([2]; first compound 0.253 µM): 0.742
- relative viability ([2]; first compound 0.8 µM): 0.458
- relative viability ([2]; first compound 2.53 µM): 0.763
- relative viability ([3]; first compound 0.08 µM): 0.954
- relative viability ([3]; first compound 0.253 µM): 0.361
- relative viability ([3]; first compound 0.8 µM): 0.317
- relative viability ([3]; first compound 2.53 µM): 0.184
- relative viability ([4]; first compound 0.08 µM): 1.01
- relative viability ([4]; first compound 0.253 µM): 0.869
- relative viability ([4]; first compound 0.8 µM): 1
- relative viability ([4]; first compound 2.53 µM): 0.74
- relative viability ([5]; first compound 0.08 µM): 1.2
- relative viability ([5]; first compound 0.253 µM): 0.938
- relative viability ([5]; first compound 0.8 µM): 0.973
- relative viability ([5]; first compound 2.53 µM): 0.853
- relative viability ([6]; first compound 0.08 µM): 0.977
- relative viability ([6]; first compound 0.253 µM): 0.763
- relative viability ([6]; first compound 0.8 µM): 0.835
- relative viability ([6]; first compound 2.53 µM): 0.765
- relative viability ([7]; first compound 0.08 µM): 0.277
- relative viability ([7]; first compound 0.253 µM): 0.253
- relative viability ([7]; first compound 0.8 µM): 0.254
- relative viability ([7]; first compound 2.53 µM): 0.195
- relative viability ([8]; first compound 0.08 µM): 0.727
- relative viability ([8]; first compound 0.253 µM): 0.681
- relative viability ([8]; first compound 0.8 µM): 0.778
- relative viability ([8]; first compound 2.53 µM): 0.729
- relative viability ([9]; first compound 0.08 µM): 0.522
- relative viability ([9]; first compound 0.253 µM): 0.457
- relative viability ([9]; first compound 0.8 µM): 0.361
- relative viability ([9]; first compound 2.53 µM): 0.488
- relative viability ([10]; first compound 0.08 µM): 0.419
- relative viability ([10]; first compound 0.253 µM): 0.391
- relative viability ([10]; first compound 0.8 µM): 0.466
- relative viability ([10]; first compound 2.53 µM): 0.464
- relative viability ([11]; first compound 0.08 µM): 0.223
- relative viability ([11]; first compound 0.253 µM): 0.186
- relative viability ([11]; first compound 0.8 µM): 0.176
- relative viability ([11]; first compound 2.53 µM): 0.185
- relative viability ([12]; first compound 0.08 µM): 1.11
- relative viability ([12]; first compound 0.253 µM): 0.449
- relative viability ([12]; first compound 0.8 µM): 0.849
- relative viability ([12]; first compound 2.53 µM): 0.741
- relative viability ([13]; first compound 0.08 µM): 0.843
- relative viability ([13]; first compound 0.253 µM): 0.676
- relative viability ([13]; first compound 0.8 µM): 0.788
- relative viability ([13]; first compound 2.53 µM): 0.595
- relative viability ([14]; first compound 0.08 µM): 0.217
- relative viability ([14]; first compound 0.253 µM): 0.246
- relative viability ([14]; first compound 0.8 µM): 0.204
- relative viability ([14]; first compound 2.53 µM): 0.139
- relative viability ([15]; first compound 0.08 µM): 0.446
- relative viability ([15]; first compound 0.253 µM): 0.422
- relative viability ([15]; first compound 0.8 µM): 0.431
- relative viability ([15]; first compound 2.53 µM): 0.406
- relative viability ([16]; first compound 0.08 µM): 0.764
- relative viability ([16]; first compound 0.253 µM): 0.754
- relative viability ([16]; first compound 0.8 µM): 0.704
- relative viability ([16]; first compound 2.53 µM): 0.529
- relative viability ([17]; first compound 0.08 µM): 0.289
- relative viability ([17]; first compound 0.253 µM): 0.32
- relative viability ([17]; first compound 0.8 µM): 0.293
- relative viability ([17]; first compound 2.53 µM): 0.412
- relative viability ([18]; first compound 0.08 µM): 0.0319
- relative viability ([18]; first compound 0.253 µM): 0.0395
- relative viability ([18]; first compound 0.8 µM): 0.0405
- relative viability ([18]; first compound 2.53 µM): 0.0235
- relative viability ([19]; first compound 0.08 µM): 0.201
- relative viability ([19]; first compound 0.253 µM): 0.193
- relative viability ([19]; first compound 0.8 µM): 0.207
- relative viability ([19]; first compound 2.53 µM): 0.246
- relative viability ([20]; first compound 0.08 µM): 0.171
- relative viability ([20]; first compound 0.253 µM): 0.18
- relative viability ([20]; first compound 0.8 µM): 0.183
- relative viability ([20]; first compound 2.53 µM): 0.151
- relative viability ([21]; first compound 0.08 µM): 1.04
- relative viability ([21]; first compound 0.253 µM): 0.973
- relative viability ([21]; first compound 0.8 µM): 1.02
- relative viability ([21]; first compound 2.53 µM): 0.886

SMILES: O=C(O)c1ccc(-c2c[nH]c3ncc(-c4ccccc4)cc23)cc1C1CCCC1 + NC(=O)Nc1cc(-c2cccc(F)c2)sc1C(=O)N[C@H]1CCCNC1 [AZD7762] (partner 0.2 µM)
- relative viability ([1]; first compound 0.04 µM): 0.826
- relative viability ([1]; first compound 0.1265 µM): 0.911
- relative viability ([1]; first compound 0.4 µM): 0.893
- relative viability ([1]; first compound 1.265 µM): 0.726
- relative viability ([3]; first compound 0.04 µM): 0.246
- relative viability ([3]; first compound 0.1265 µM): 0.32
- relative viability ([3]; first compound 0.4 µM): 0.21
- relative viability ([3]; first compound 1.265 µM): 0.246
- relative viability ([22]; first compound 0.04 µM): 0.274
- relative viability ([22]; first compound 0.1265 µM): 0.413
- relative viability ([22]; first compound 0.4 µM): 0.399
- relative viability ([22]; first compound 1.265 µM): 0.43
- relative viability ([23]; first compound 0.1265 µM): 0.734
- relative viability ([23]; first compound 0.4 µM): 0.779
- relative viability ([23]; first compound 1.265 µM): 0.712
- relative viability ([4]; first compound 0.04 µM): 0.618
- relative viability ([4]; first compound 0.1265 µM): 0.795
- relative viability ([4]; first compound 0.4 µM): 0.637
- relative viability ([4]; first compound 1.265 µM): 0.674
- relative viability ([5]; first compound 0.04 µM): 0.853
- relative viability ([5]; first compound 0.1265 µM): 0.926
- relative viability ([5]; first compound 0.4 µM): 0.835
- relative viability ([5]; first compound 1.265 µM): 0.812
- relative viability ([6]; first compound 0.04 µM): 0.278
- relative viability ([6]; first compound 0.1265 µM): 0.368
- relative viability ([6]; first compound 0.4 µM): 0.302
- relative viability ([6]; first compound 1.265 µM): 0.268
- relative viability ([7]; first compound 0.04 µM): 0.486
- relative viability ([7]; first compound 0.1265 µM): 0.522
- relative viability ([7]; first compound 0.4 µM): 0.421
- relative viability ([7]; first compound 1.265 µM): 0.411
- relative viability ([8]; first compound 0.04 µM): 1.07
- relative viability ([8]; first compound 0.1265 µM): 1.25
- relative viability ([8]; first compound 0.4 µM): 1.02
- relative viability ([8]; first compound 1.265 µM): 0.922
- relative viability ([9]; first compound 0.04 µM): 0.488
- relative viability ([9]; first compound 0.1265 µM): 0.521
- relative viability ([9]; first compound 0.4 µM): 0.547
- relative viability ([9]; first compound 1.265 µM): 0.523
- relative viability ([10]; first compound 0.04 µM): 0.673
- relative viability ([10]; first compound 0.1265 µM): 0.959
- relative viability ([10]; first compound 0.4 µM): 0.94
- relative viability ([10]; first compound 1.265 µM): 0.634
- relative viability ([11]; first compound 0.04 µM): 0.513
- relative viability ([11]; first compound 0.1265 µM): 0.752
- relative viability ([11]; first compound 0.4 µM): 0.544
- relative viability ([11]; first compound 1.265 µM): 0.798
- relative viability ([12]; first compound 0.04 µM): 0.681
- relative viability ([12]; first compound 0.1265 µM): 0.64
- relative viability ([12]; first compound 0.4 µM): 0.77
- relative viability ([12]; first compound 1.265 µM): 0.764
- relative viability ([13]; first compound 0.04 µM): 0.464
- relative viability ([13]; first compound 0.1265 µM): 0.622
- relative viability ([13]; first compound 0.4 µM): 0.637
- relative viability ([13]; first compound 1.265 µM): 0.802
- relative viability ([14]; first compound 0.04 µM): 0.738
- relative viability ([14]; first compound 0.1265 µM): 0.793
- relative viability ([14]; first compound 0.4 µM): 0.676
- relative viability ([14]; first compound 1.265 µM): 0.728
- relative viability ([15]; first compound 0.04 µM): 0.944
- relative viability ([15]; first compound 0.1265 µM): 1.09
- relative viability ([15]; first compound 0.4 µM): 1.03
- relative viability ([15]; first compound 1.265 µM): 0.871
- relative viability ([16]; first compound 0.04 µM): 0.933
- relative viability ([16]; first compound 0.1265 µM): 1.03
- relative viability ([16]; first compound 0.4 µM): 0.895
- relative viability ([16]; first compound 1.265 µM): 0.82
- relative viability ([17]; first compound 0.04 µM): 0.494
- relative viability ([17]; first compound 0.1265 µM): 0.536
- relative viability ([17]; first compound 0.4 µM): 0.456
- relative viability ([17]; first compound 1.265 µM): 0.452
- relative viability ([18]; first compound 0.04 µM): 0.625
- relative viability ([18]; first compound 0.1265 µM): 0.822
- relative viability ([18]; first compound 0.4 µM): 0.886
- relative viability ([18]; first compound 1.265 µM): 0.794
- relative viability ([20]; first compound 0.04 µM): 0.635
- relative viability ([20]; first compound 0.1265 µM): 0.648
- relative viability ([20]; first compound 0.4 µM): 0.755
- relative viability ([20]; first compound 1.265 µM): 0.598
